Data on 16 compounds can be found in patent publication US5244883A, “Nonapeptide bombesin antagonists” (The Administrators of the Tulane Educational Fund, priority 1990, dated 1993).

pIC50, pKd: −log10 of the molar value. Where a SMILES comes first, the peptide text is derived from it. [ ]: non-standard residue; d: D form. The star is where a group is joined. His(τ-Bzl) = N[C@@H](Cc1cn(Cc2ccccc2)cn1)C(=O)O; X2 = CC(C)C[C@@H](CN[C@@H](CC(C)C)C(N)=O)N*; dTpi = O=C(O)[C@H]1Cc2c([nH]c3ccccc23)CN1

The target in this test is T1, GRP receptors on Swiss 3T3 cells (Mus musculus, UniProt P21729).
T1 construct: conducted in 24-well tissue culture plates (GIBCO) using Swiss 3T3 cells; endogenous in cells; host or cells: Murine Swiss 3T3 fibroblasts (intact confluent, quiescent cells)
T1 sequence (P21729 whole entry): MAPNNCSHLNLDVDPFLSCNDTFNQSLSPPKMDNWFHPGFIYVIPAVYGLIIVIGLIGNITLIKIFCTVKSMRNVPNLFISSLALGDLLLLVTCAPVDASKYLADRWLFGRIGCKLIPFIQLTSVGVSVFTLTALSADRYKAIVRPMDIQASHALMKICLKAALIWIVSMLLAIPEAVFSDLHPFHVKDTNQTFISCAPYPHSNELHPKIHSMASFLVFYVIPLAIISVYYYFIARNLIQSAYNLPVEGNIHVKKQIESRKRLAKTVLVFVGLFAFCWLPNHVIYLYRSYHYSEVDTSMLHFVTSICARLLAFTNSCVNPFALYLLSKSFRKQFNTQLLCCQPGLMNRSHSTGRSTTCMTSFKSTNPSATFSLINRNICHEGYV
The test can be described thus: Receptor binding assay: displacement of 125I-GRP(14-27) on Swiss 3T3 cells. More on the design: species or system Murine. The conditions noted are these: for Ka: association constant, N.D.=NO DISPLACEMENT; for Ka / pKd: 0.2 nM 125I-GRP(14-27), Swiss 3T3 cells, 37° C. 30 min; for pIC50: calculated by Cheng and Prussoff equation IC50=Kc(1+L/Kh), 0.2 nM radioligand. How it is done:
(A) Receptor Binding Assay
Binding of ^125 I-GRP(14-27) and displacement by bombesin antagonists were conducted in 24-well tissue culture plates (GIBCO) using Swiss 3T3 cells. Murine Swiss 3T3 fibroblasts were maintained by weekly passage in DMEM containing 10% FCBS and antimycotics. Cultures were incubated in 5% CO2 in air at 37° C. The wells were seeded with 10^5 cells/well (viability >95%), grown to confluence and quiescency. The binding procedure was conducted 7 days after seeding. The cells were washed 2 times with 0.5 ml of binding buffer (Dulbecco's modified Eagle's medium containing […] (pH 7.4), 0.2% BSA and 100 mcg/ml bacitracin). The cells were then incubated with 0.2 nM ^125 I-GRP (14-27) in the presence or absence of different concentrations of antagonists (6×10^-11 -6×10^-6 M, total volume 0.4 ml).
According to Zachary and Rozengurt (1985) and Layton et al., (1988), binding of ^125 I-GRP at 37° C. reached a maximum value at 30 min and decreased afterwards; so, the cells were incubated at 37° C. for 30 min. After that, the cells were washed 2 times with ice-cold (4° C.) binding buffer and 2 times with the ice-cold phosphate-buffered saline (PBS,mM): NaCl 138, KCl 2.8, Na2 HPO4 8, KH2 PO4 1.45, CaCl2 0.91, MgCl2 0.49. Washed cultures were extracted in 0.5 ml of 0.5M NaOH and transferred to tubes for counting. The wells were washed once with 0.5 ml distilled water (sterile), and the washing were added to the appropriate tubes. Then the radio-activity of the samples was counted in an automatic gamma counter (Micromedic System, Inc., Huntsville, Ala.).
The Ligand - PC computerized curve fitting program of Munson and Rodbard was used to determine the types of receptor binding, dissociation constant (Kd), association constant (Ka), the maximal binding capacity of receptors (Bmax) and half-maximal inhibition (IC50).
IC50 values represent concentrations of antagonists causing half-maximal inhibition of 0.2 nM GRP(14-27) stimulated growth. Dissociation constant and maximal binding capacity of ^125 I-GRP (14-27) in our experiments were 1.32 nm and 0.769 pm/mg protein, respectively, which were similar to those reported for ^125 I-GRP and ^125 I-Tyr^4 -bombesin. Binding characteristics of GRP receptors on 3T3 cells in these experiments agree well with values obtained for bombesin binding to pancreatic acinar (Jensen et al., 1978) and pituitary cells (Westendorf and Schonbrunn, 1983).
IC50 is the concentration of unlabelled ligand that displaced half the specific radioligand binding. It is calculated according to the equation of Cheng and Prussoff (1973): IC50 =Kc (1+L/Kh), where Kc and Kh are the dissociation constants of unlabelled (cold) and labelled (hot) ligand respectively, and L is the concentration of radioligand used.

In the case of `CSCC[C@H](NC(=O)[C@H](CC(C)C)NC(=O)[C@H](Cc1c[nH]cn1)NC(=O)CNC(=O)[C@@H](NC(=O)[C@H](C)NC(=O)[C@H](Cc1c[nH]c2ccccc12)NC(=O)[C@H](Cc1c[nH]cn1)NC(=O)[C@H](CC(N)=O)NC(=O)CNC(=O)[C@H](CCCNC(=N)N)NC(=O)[C@@H]1CCCN1C(=O)[C@H](Cc1ccc(O)cc1)NC(=O)[C@@H](N)CCSC)C(C)C)C(N)=O` [125I-GRP (14-27), reference compound], the “maximal binding capacity of 125I-GRP(14-27)” value (radioligand on Swiss 3T3 cells) stood at 0.769 pm/mg protein.

On to `CSCC[C@H](NC(=O)[C@H](CC(C)C)NC(=O)[C@H](Cc1c[nH]cn1)NC(=O)CNC(=O)[C@@H](NC(=O)[C@H](C)NC(=O)[C@H](Cc1c[nH]c2ccccc12)NC(=O)[C@H](Cc1c[nH]cn1)NC(=O)[C@H](CC(N)=O)NC(=O)CNC(=O)[C@H](CCCNC(=N)N)NC(=O)[C@@H]1CCCN1C(=O)[C@H](Cc1ccc(O)cc1)NC(=O)[C@@H](N)CCSC)C(C)C)C(N)=O` [GRP(14-27), reference compound], for which the Ka came to 0.758 ± 0.23 nM⁻¹.

As a reminder, the pKd is the negative decadic logarithm of the Kd, by convention in mol/L. A higher pKd goes with a small Kd. In general, pIC50 refers to the negative decadic logarithm of the IC50, by convention in mol/L. As to `CC(C)C[C@@H](CN[C@@H](CC(C)C)C(N)=O)NC(=O)[C@H](Cc1c[nH]cn1)NC(=O)CNC(=O)[C@@H](NC(=O)[C@H](C)NC(=O)[C@H](Cc1c[nH]c2ccccc12)NC(=O)[C@H](CCC(N)=O)NC(=O)[C@H](N)Cc1c[nH]c2ccccc12)C(C)C` [Peptide 2, D--Trp--Gln--Trp--Ala--Val--Gly--His--Leu-psi-Leu--NH2], the pKd is 7.97 and the pIC50 is 7.91.

In the case of `CC(C)C[C@@H](CN[C@@H](CC(C)C)C(N)=O)NC(=O)[C@H](Cc1c[nH]cn1)NC(=O)CNC(=O)[C@@H](NC(=O)[C@H](C)NC(=O)[C@H](Cc1c[nH]c2ccccc12)NC(=O)[C@H](CCC(N)=O)NC(=O)[C@H]1Cc2c([nH]c3ccccc23)CN1)C(C)C` [Peptide 5, D--Tpi--Gln--Trp--Ala--Val--Gly--His--Leu-psi-Leu--NH2], the pKd is 8.10 and the pIC50 was 8.04.

Turning to `CC(C)C[C@@H](CN[C@@H](CC(C)C)C(N)=O)NC(=O)[C@H](Cc1c[nH]cn1)NC(=O)CNC(=O)[C@@H](NC(=O)[C@H](C)NC(=O)[C@H](Cc1c[nH]c2ccccc12)NC(=O)[C@H](Cc1cn(Cc2ccccc2)cn1)NC(=O)[C@H]1Cc2c([nH]c3ccccc23)CN1)C(C)C` [Peptide 8, D--Tpi--His(Bz)--Trp--Ala--Val--Gly--His--Leu-psi-Leu--NH2] (H-[dTpi][His(τ-Bzl)]WAVGH-X2), the Ka was 0.014 nM⁻¹.

On to `CC(C)C[C@@H](CN[C@@H](Cc1ccccc1)C(N)=O)NC(=O)[C@H](Cc1c[nH]cn1)NC(=O)CNC(=O)[C@@H](NC(=O)[C@H](C)NC(=O)[C@H](Cc1c[nH]c2ccccc12)NC(=O)[C@H](CCC(N)=O)NC(=O)[C@H](N)Cc1c[nH]c2ccccc12)C(C)C` [Peptide 10, D--Trp--Gln--Trp--Ala--Val--Gly--His--Leu-psi-Phe--NH2], for which the negative logarithm of the Kd (pKd) was 9.00 and the pIC50 was 8.94.

With `CNC(=O)CC[C@H](NC(=O)[C@H](N)Cc1c[nH]c2ccccc12)C(=O)N[C@@H](Cc1c[nH]c2ccccc12)C(=O)N[C@@H](C)C(=O)N[C@H](C(=O)NCC(=O)N[C@@H](Cc1c[nH]cn1)C(=O)N[C@H](CN[C@@H](Cc1ccccc1)C(N)=O)CC(C)C)C(C)C` [Peptide 11, D--Trp--Glu(MeNH)--Trp--Ala--Val--Gly--His--Leu-psi-Phe--NH2], the pKd was 8.30 and the pIC50 is 8.24.

`CC(C)C[C@@H](CN[C@@H](Cc1ccccc1)C(N)=O)NC(=O)[C@H](Cc1c[nH]cn1)NC(=O)CNC(=O)[C@@H](NC(=O)[C@H](C)NC(=O)[C@H](Cc1c[nH]c2ccccc12)NC(=O)[C@H](CCC(N)=O)NC(=O)[C@H]1Cc2c([nH]c3ccccc23)CN1)C(C)C` [Peptide 12, D--Tpi--Gln--Trp--Ala--Val--Gly--His--Leu-psi-Phe--NH2] (HELM PEPTIDE1{[O=C([C@H]1Cc2c([nH]c3ccccc23)CN1)[*:2]].Q.W.A.V.G.H.[CC(C)C[C@@H](CN[C@@H](Cc1ccccc1)C(N)=O)N[*:1]]}$$$$V2.0) came in with a Ka of 0.014 nM⁻¹.

As to `CC(C)C[C@@H](CN1Cc2[nH]c3ccccc3c2C[C@H]1C(N)=O)NC(=O)[C@H](Cc1c[nH]cn1)NC(=O)CNC(=O)[C@@H](NC(=O)[C@H](C)NC(=O)[C@H](Cc1c[nH]c2ccccc12)NC(=O)[C@H](CCC(N)=O)NC(=O)[C@H](N)Cc1ccccc1)C(C)C` [Peptide 17, D--Phe--Gln--Trp--Ala--Val--Gly--His--Leu-psi-Tpi--NH2], the pKd is 9.00 and the pIC50 is 8.92.

Regarding `CC(C)C[C@@H](CN1Cc2[nH]c3ccccc3c2C[C@H]1C(N)=O)NC(=O)[C@H](Cc1c[nH]cn1)NC(=O)CNC(=O)[C@@H](NC(=O)[C@H](C)NC(=O)[C@H](Cc1c[nH]c2ccccc12)NC(=O)[C@H](CCC(N)=O)NC(=O)[C@H](N)Cc1c[nH]c2ccccc12)C(C)C` [Peptide 18, D--Trp--Gln--Trp--Ala--Val--Gly--His--Leu-psi-Tpi--NH2], the pKd was 8.40 and the pIC50 is 8.34.

On to `CC(C)C[C@@H](CN1Cc2[nH]c3ccccc3c2C[C@H]1C(N)=O)NC(=O)[C@H](Cc1c[nH]cn1)NC(=O)CNC(=O)[C@@H](NC(=O)[C@H](C)NC(=O)[C@H](Cc1c[nH]c2ccccc12)NC(=O)[C@H](CCC(N)=O)NC(=O)[C@@H]1Cc2c([nH]c3ccccc23)CN1)C(C)C` [Peptide 22, Tpi--Gln--Trp--Ala--Val--Gly--His--Leu-psi-Tpi--NH2], for which the pKd was 9.05 and the pIC50 is 8.94.

Take `CC(C)C[C@@H](CN1Cc2[nH]c3ccccc3c2C[C@H]1C(N)=O)NC(=O)[C@H](Cc1c[nH]cn1)NC(=O)CNC(=O)[C@@H](NC(=O)[C@H](C)NC(=O)[C@H](Cc1c[nH]c2ccccc12)NC(=O)[C@H](CCC(N)=O)NC(=O)[C@H]1Cc2c([nH]c3ccccc23)CN1)C(C)C` [Peptide 26, D--Tpi--Gln--Trp--Ala--Val--Gly--His--Leu-psi-Tpi--NH2]: the pKd is 7.66 and the pIC50 was 7.60.

On to `COc1ccc(CCC(=O)N[C@@H](CCC(N)=O)C(=O)N[C@@H](Cc2c[nH]c3ccccc23)C(=O)N[C@@H](C)C(=O)N[C@H](C(=O)NCC(=O)N[C@@H](Cc2c[nH]cn2)C(=O)N[C@H](CN[C@@H](Cc2c[nH]c3ccccc23)C(N)=O)CC(C)C)C(C)C)cc1` [Peptide 27, Mpp--Gln--Trp--Ala--Val--Gly--His--Leu-psi-Trp--NH2] (HELM PEPTIDE1{[COc1ccc(CCC(=O)[*:2])cc1].Q.W.A.V.G.H.[CC(C)C[C@@H](CN[C@@H](Cc1c[nH]c2ccccc12)C(N)=O)N[*:1]]}$$$$V2.0), for which the Ka turned out to be 0.013 nM⁻¹.

`CC(C)C[C@@H](CN[C@@H](Cc1c[nH]c2ccccc12)C(N)=O)NC(=O)[C@H](Cc1c[nH]cn1)NC(=O)CNC(=O)[C@@H](NC(=O)[C@H](C)NC(=O)[C@H](Cc1c[nH]c2ccccc12)NC(=O)[C@H](CCC(N)=O)NC(=O)[C@H](N)Cc1ccccc1)C(C)C` [Peptide 28, D--Phe--Gln--Trp--Ala--Val--Gly--His--Leu-psi-Trp--NH2]: the pKd was 8.10 and the pIC50 was 8.04.

On to `CC(C)C[C@@H](CN[C@@H](Cc1c[nH]c2ccccc12)C(N)=O)NC(=O)[C@H](Cc1c[nH]cn1)NC(=O)CNC(=O)[C@@H](NC(=O)[C@H](C)NC(=O)[C@H](Cc1c[nH]c2ccccc12)NC(=O)[C@H](CCC(N)=O)NC(=O)[C@H](N)Cc1c[nH]c2ccccc12)C(C)C` [Peptide 29, D--Trp--Gln--Trp--Ala--Val--Gly--His--Leu-psi-Trp--NH2], for which the pKd is 6.28 and the pIC50 is 6.22.

Take `CC(C)C[C@@H](CN[C@@H](Cc1c[nH]c2ccccc12)C(N)=O)NC(=O)[C@H](Cc1c[nH]cn1)NC(=O)CNC(=O)[C@@H](NC(=O)[C@H](C)NC(=O)[C@H](Cc1c[nH]c2ccccc12)NC(=O)[C@H](CCC(N)=O)NC(=O)[C@H]1Cc2c([nH]c3ccccc23)CN1)C(C)C` [Peptide 30, D--Tpi--Gln--Trp--Ala--Val--Gly--His--Leu-psi-Trp--NH2]: the pKd is 8.40 and the pIC50 was 8.29.
